# Source: patent US4997825A, “Synergistic treatment method” (Eli Lilly and Company, priority 1989, dated 1991)
# Like-named read-outs stand apart in the source and are kept apart here. No end group written: not given here.
# Columns and labels:
# Plasma GH [1] = assay: Plasma growth hormone in lambs during subcutaneous infusion of hGRF analog (serine at position 27), with or without estradiol implant; assay type: in vivo; conditions: no hGRF (Control)
# Procedure: This experiment was carried out substantially according to the scheme of Example 1. In this test, the GRF was a hGRF analog having serine in place of methionine at position 27; the GRF was prepared by recombinant methods. Four rates of hGRF were used, 0.75, 1.5 and 3.0 mg/day, and controls.
# The hGRF was infused through a subcutaneous Silastic cannula using an IVAC model 630 pump (IVAC Corporation, San Diego). The hGRF was diluted in physiological saline to provide concentrations such that 48 ml/day of each infusate could be supplied to each animal.
# Plasma GH [2] = assay: Plasma growth hormone in wethers during 5-day continuous infusion of hGRF (acid form) through a jugular cannula, with or without estradiol implant; radioimmunological analysis; assay type: in vivo; conditions: no hGRF (Control), estradiol implant about 25 mcg/day
# Procedure: Wethers weighing about 32 kg were confined in metabolism crates for about 7 days before the experiment began. […] Two days before the start of the treatment schedule, a Silastic (Dow Corning Corporation) cannula was inserted in each jugular vein of each wether. Four animals, two implanted and two unimplanted, were assigned to three GRF treatments, 1.5 mg/day, 0.33 mg/day and control. The GRF which was used was hGRF in the acid form, synthesized by solid phase synthetic methodology according to the general procedure of Merrifield et al., Biochemistry 21, 5020 (1982).
# GRF was infused through one of the cannulae continuously for 5 days to the treated wethers, using a Harvard peristaltic pump. The GRF was diluted in physiological saline to a concentration such that the actual delivery rate was 0.5 ml of infusate per minute.
# Six blood samples were collected from each wether each day, beginning 1 day before the start of infusion and continuing 1 day after the end of it. Two samples were obtained within 1 hour just before the beginning of each 1-hour ad libitum meal, and 1 sample was taken at the end of each meal. The animals received two 1-hour meals daily at 12 hour intervals. Additional blood samples were taken 1 hour before, just before, 10 minutes after and 60 minutes after the start of infusion. At the end of the infusion period, additional blood samples were obtained at 10, 20, 30 and 60 minutes after the termination of infusion.
# The plasma was separated from the other components of the blood samples, and was analyzed for growth hormone by a standard radioimmunological procedure.
# The table below reports the growth hormone levels in the animals, reported as means of all of the analyses in the stated time period. The data from animals which were implanted with estradiol are indicated by "+" in the column headed Estradiol.
# growth hormone [3] = conditions: steers, finishing diet with 10 mg/head/day; cited from earlier work
# [4] = system: growth hormone concentration; conditions: large doses, normal men, measured fasting; cited from earlier work
# growth hormone [5] = conditions: rats, Rhesus monkeys, rabbits, sheep, cattle and chickens, as well as humans; cited from earlier work
# growth hormone [6] = conditions: intravenously, normal men; cited from earlier work
compound,measurement,setting,value
"C[C@]12CC[C@@H]3c4ccc(O)cc4CC[C@H]3[C@@H]1CC[C@@H]2O [Estradiol, estradiol]","Plasma GH, Infusion Period Day 1",Plasma GH [1],5.9 ng/mL
same,"Plasma GH, Infusion Period Day 2",Plasma GH [1],10.0 ng/mL
same,"Plasma GH, Infusion Period Day 3",Plasma GH [1],6.2 ng/mL
same,"Plasma GH, Infusion Period Day 5",Plasma GH [1],8.8 ng/mL
same,"Plasma GH, Posttreatment",Plasma GH [1],8.7 ng/mL
same,"Plasma GH, Pretreatment",Plasma GH [1],11.6 ng/mL
same,"Plasma GH, Infusion Period Day 1",Plasma GH [2],3.3 ng/mL
same,"Plasma GH, Infusion Period Day 2",Plasma GH [2],4.3 ng/mL
same,"Plasma GH, Infusion Period Day 3",Plasma GH [2],2.9 ng/mL
same,"Plasma GH, Infusion Period Day 4",Plasma GH [2],5.2 ng/mL
same,"Plasma GH, Infusion Period Day 5",Plasma GH [2],4.2 ng/mL
same,"Plasma GH, Posttreatment",Plasma GH [2]; day after infusion,2.4 ng/mL
same,"Plasma GH, Pretreatment","Plasma GH [2]; mean of analyses, day before infusion",2.8 ng/mL
CC/C(=C(/CC)c1ccc(O)cc1)c1ccc(O)cc1 [stilbestrol],growth hormone,growth hormone [3],increased growth hormone
CC/C(=C(/CC)c1ccc(O)cc1)c1ccc(O)cc1 [diethylstilbestrol],growth hormone concentration,[4],increased growth hormone concentration
"endogenous human GRF: GRF naturally produced by humans; peptide of 43 or 44 amino acids (YADAIFTNSYRKVLGQLSARKLLQDIMSRQQGESNQERGARARL; ends and bridges not checked; UniProt P01286 32-75, looked up)",GRF activity across species,growth hormone [5],active
C#C[C@]1(O)CC[C@H]2[C@@H]3CCc4cc(O)ccc4[C@H]3CC[C@@]21C [Ethinyl estradiol],growth hormone,growth hormone [6],significant increase in growth hormone in 5 of 6 patients
"hGRF40 acid: human GRF analog having 40 amino acids and a free acid terminal (YADAIFTNSYRKVLGQLSARKLLQDIMSRQQGESNQERGA-OH; UniProt P01286 32-71, looked up, fragment)",GRF activity across species,growth hormone [5],active
